In the METLIN SMRT retention time set (Domingo-Almenara et al. 2019) one finds RP-LC retention time data, which are given here for 32 compounds.

The series is described as follows: gradient 5% acetonitrile 3 min, to 50% in 2 min, to 85% in 15 min, held 3 min, 100 µL/min. To be noted: column: Zorbax Extend-C18 2.1 x 50 mm; eluents: water / acetonitrile, 0.1% formic acid. In short, it runs like this:
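Pure standards were run in mixtures of ~100 molecules by HPLC coupled to a quadrupole time-of-flight mass spectrometer. The column was a Zorbax Extend-C18 (2.1 × 50 mm, 1.8 μm) at 100 μL/min, with water and acetonitrile each containing 0.1% formic acid, in positive and negative ionization mode. Dead and dwell volumes were 40 μL and 900 μL. Retention time was taken from computationally picked adduct peaks, each manually inspected, with data collected over 3 months.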
With `CC(O)(CNC(=O)c1cnc2ccccc2n1)c1ccccc1` (configuration not stated), the RP-LC retention time was 734 s. As for `C=CCN1C(=O)COc2ccc(-c3csc(NC(=O)CCCC)n3)cc21`, the figure is 953 s. The figure for `CCOc1ccccc1NC(=O)Nc1ccc2c(c1)CCN2S(=O)(=O)c1ccccc1` is 1040 s; for `O=C(Nc1ccccc1C(=O)N1CCN(c2ccccc2F)CC1)C1=CSCCO1` it is 927 s; for `O=S(=O)(Nc1cc(F)cc(F)c1)c1ccc(-c2nnc(C3CC3)o2)o1` it is 878 s. The figure for `CC1(C)CCCC2(C)C3=C(CCC12)C(=O)OC3` (configuration not stated) is 1270 s; for `O=C(Nc1cnn(-c2ncc(N3CCCC3)cn2)c1)c1cccc(C(F)(F)F)c1` it is 917 s. In the case of `Cc1cc(Cl)ccc1OCc1nc(-c2cccc(-c3ccnn3C)c2)no1`, the RP-LC retention time is 1200 s. The figure for `CCN1CCN(c2c(C(=O)c3ccc(C)c(C)c3)cnc3cc(OC)c(OC)cc23)CC1` is 579 s. The figure for `COC(=O)c1c(-c2cccc(F)c2)noc1NCCc1c(C)noc1C` is 968 s. The figure for `Cc1ccc(-c2cc3c(N4CCC(C(=O)NC(C)C)CC4)nccn3n2)c(C)c1` is 769 s.

As to `CCCn1c(=O)c(C)nc2cc(-c3noc(C4CC(=O)N(c5ccc(C)cc5)C4)n3)ccc21` (configuration not stated), the RP-LC retention time came out at 927 s.

With `COc1ccc(NS(=O)(=O)c2cc(-c3[nH]ncc3C(=O)N(C)C)oc2C)cc1`, the RP-LC retention time worked out at 658 s. The figure for `O=C(NCCc1csc(-c2ccccc2)n1)C1CCN(C(=O)CCc2ccccc2)CC1` is 859 s; for `O=C(Cc1ccc(Cl)cc1)Nc1ccsc1-c1nnc(C2CC2)o1` it is 1190 s; for `COc1ccc(N2CC(c3nc(-c4ccc(Br)cc4)no3)CC2=O)cc1` (configuration not stated) it is 1050 s. The figure for `COc1cc(N2C=C(C#N)S(=O)(=O)c3ccc(C)cc32)cc(OC)c1OC` is 887 s. As for `COc1ccc(Nc2nc(N3CCN(C)CC3)nc3c2C(=O)CC(C)(C)C3)cc1`, the figure is 706 s; as for `COC(=O)c1ccc(NS(=O)(=O)c2cccc(-c3nc(-c4ccc(C)cc4)no3)c2)cc1`, 1190 s.

Compound `CC(=O)Nc1cccc(Oc2nc(C)nc3sc4c(c23)CCCC4)c1` yielded an RP-LC retention time of 913 s.

In turn, `CCCCn1c(=O)c2ccccc2n(Cc2nc(-c3cccc(OCC)c3)no2)c1=O` had an RP-LC retention time of 1150 s.

In turn, `CCc1ccccc1NC(=O)Cc1c(C)n(C)c2nc(-c3ccccc3)nn2c1=O` gave an RP-LC retention time of 865 s. The figure for `COc1ccc(C2=NCC(=O)N(CC(=O)Nc3cc(F)ccc3F)c3sccc32)cc1` is 702 s. Turning to `CCn1cc(-c2nc(C(=O)NCc3ccc(F)c(Cl)c3)cs2)c2cccnc21`, the RP-LC retention time came to 1050 s. The figure for `CN(C)C(=O)c1csc(S(=O)(=O)N2CCC(C(=O)NC3CCCCCC3)CC2)c1` is 783 s. Compound `Cc1cc(C)c2c(N3CCCC3)nc(C(=O)NCc3cccs3)nc2n1` had an RP-LC retention time of 643 s. As for `COCCNC(=O)N1CCCn2nc(-c3ccc(OC)cc3)cc2C1`, the figure is 660 s.

For the compound `COc1ccc(C(C)NC(=O)Cn2nc3cc(-c4ccccc4)nc(C)n3c2=O)cc1` (configuration not stated), the RP-LC retention time turned out to be 908 s. The figure for `Cc1ccc(Nc2c(-c3ccc(N(C)C)cc3)nc3cccc(C)n23)cc1` is 816 s. Compound `Cc1ccc(Nc2c(-c3ccccc3)nc3cc(C)ccn23)cc1` gave an RP-LC retention time of 741 s. As for `CN(C(=O)Nc1ccccc1)C1CCc2nn(CC3CC3)c(=O)n2CC1` (configuration not stated), the figure is 681 s; as for `COc1ccc(CCNC(=O)NCCS(=O)(=O)c2c(C)n(C)c3ccccc23)cc1`, 740 s.
